Drawing on patent publication US9745299B2, “Substituted tricyclic benzimidazoles as kinase inhibitors” (SELVITA SA, priority 2012, dated 2017), this text covers inhibition and IC50 for 14 compounds.

One assay concerns the target T1, CDK8/CyclinC (Homo sapiens, UniProt P49336).
T1 construct: purchased ProQinase, Freiburg, Germany
The assay can be described thus: ADP-Glo Kinase Assay, CDK8/CyclinC. Note: ATP at apparent Km (53 µM). The format is biochemical. The note with it: read-out: % inhibition at 1 μM CDK8/CyclinC. On the procedure:
(§1) Testing of the compounds described in this invention was carried out using the ADP-Glo™ Kinase Assay from Promega Corporation (Madison, Wis., USA).
(§2) The ADP-Glo™ Kinase Assay is a luminescent ADP detection assay to measure kinase activity by quantifying the amount of ADP produced during a kinase reaction. The kinase assay is performed in kinase assay buffer (5 mM MOPS, pH 7.5, 5 mM MgCl2, 0.4 mM EDTA, 1.5 mM DTT). Test samples initially dissolved in DMSO at 10 mM were diluted with the assay buffer to 1000 nM. A 30 μL volume/well of a mixture of substrates containing ATP (final ATP concentration in each kinase assay was equal to its apparent ATP Km).
(§3) The assay was performed in two steps: first, after the kinase reaction, an equal volume of ADP-Glo™ Reagent was added to terminate the kinase reaction and deplete the remaining ATP. Second, the Kinase Detection Reagent was added to simultaneously convert ADP to ATP and allowed the newly synthesized ATP to be measured using a luciferase/luciferin reaction. The luminescent signal generated was proportional to the ADP concentration produced and was correlated with kinase activity.

The next assay concerns the target T2, CDK9/CyclinT (Homo sapiens, UniProt P50750).
T2 construct: purchased Proqinase, Freiburg, Germany
As to the kind of experiment: ADP-Glo Kinase Assay, CDK9/CyclinT. Note: ATP at apparent Km (26 µM). The note with it: read-out: % inhibition at 1 μM CDK9/CyclinT. The class given is biochemical. On the procedure:
as §1, §2, §3
For orientation: In ADP-Glo the light output rises with the ADP produced.

A further assay addresses T3, CDK2/CyclinE (Homo sapiens, UniProt P24941).
T3 construct: purchased Millipore, Billerica, Mass., USA
As to the kind of experiment: ADP-Glo Kinase Assay, CDK2/CyclinE. The note with it: read-out: % inhibition at 1 μM CDK2/CyclinE. The format is biochemical. As for the experimental part: as §1, §2, §3

In another assay the test system is HCT116 cells. The assay can be described thus: MTS viability assay, HCT116. The format is cell-based. The note with it: Homo sapiens, HCT-116, HCT116, 72 hour incubation, read-out: IC50 [μM] HCT116 ED50. The source says: (§4) The viability of CDK8 expressing cells can be evaluated using a tetrazolium salt reduction cell-based assay. In viable cells this colorimetric assay can measure mitochondrial reduction of a tetrazolium component (MTS) into an […] formazan product. For MTS viability assay, human colon cancer cell lines were used (SW480 and HCT116 cell lines), containing elevated levels of CDK8 protein and highly dependent on its expression for proliferation [see, Firenstein et al. Nature 455 (25):547-551, (2008)]. These cell lines were used to determine the activity of the compounds provided herein to inhibit CDK8 in intact cells. Human tumor cell lines were obtained from ATCC (Rockville Md. USA). In each case, and by methods known to those practiced in the art of cell culture, vaiability was measured after 72 hour incubation with the compounds provided herein using a standard MTS protocol (CellTiter 96® AQueous Non-Radioactive Cell Proliferation Assay).
(§5) Briefly, cells were plated at 10,000-20,000 cells per well in DMEM medium supplemented with 10% fetal bovine serum. The compound plate was set up by aliquoting into column 1 of a 96-well plate, the negative control (DMSO), aliquoting into column 12 the positive control, and titrating the test compound in serial dilutions into columns 2-11. An aliquot from each well of the compound plate was transferred to the plated cells and then incubated at 37° C. in 5% CO2. 20 μL of MTS tetrazolium was added to each well of optical plate and the cells were incubated at 37° C. in 5% CO2 for 2 hours. The absorbance was measured at 490 nm using a microplate reader.
In general terms: Tetrazolium assays rely on reduction of a dye to a coloured formazan, in cell work by metabolically active cells.

In a further assay the test system is SW480 cells. The assay can be described thus: MTS viability assay, SW480. The note with it: Homo sapiens, SW480, 72 hour incubation, read-out: IC50 [μM] SW-480 ED50. The format is cell-based.
Excerpt: as §4, §5

T1 sequence (P49336 whole entry): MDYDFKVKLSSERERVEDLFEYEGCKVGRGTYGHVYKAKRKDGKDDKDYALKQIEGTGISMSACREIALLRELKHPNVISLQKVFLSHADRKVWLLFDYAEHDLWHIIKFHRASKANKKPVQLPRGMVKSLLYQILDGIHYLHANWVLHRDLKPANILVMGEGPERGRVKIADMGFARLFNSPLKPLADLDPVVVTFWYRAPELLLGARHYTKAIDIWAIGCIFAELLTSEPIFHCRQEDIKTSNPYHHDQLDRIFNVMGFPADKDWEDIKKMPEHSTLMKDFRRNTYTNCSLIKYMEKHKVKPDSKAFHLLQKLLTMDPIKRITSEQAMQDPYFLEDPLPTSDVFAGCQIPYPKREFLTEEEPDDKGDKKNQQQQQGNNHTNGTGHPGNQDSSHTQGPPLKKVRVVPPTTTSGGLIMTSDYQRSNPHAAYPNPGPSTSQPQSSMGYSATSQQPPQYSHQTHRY
T1 sequence (P24863 whole entry partner): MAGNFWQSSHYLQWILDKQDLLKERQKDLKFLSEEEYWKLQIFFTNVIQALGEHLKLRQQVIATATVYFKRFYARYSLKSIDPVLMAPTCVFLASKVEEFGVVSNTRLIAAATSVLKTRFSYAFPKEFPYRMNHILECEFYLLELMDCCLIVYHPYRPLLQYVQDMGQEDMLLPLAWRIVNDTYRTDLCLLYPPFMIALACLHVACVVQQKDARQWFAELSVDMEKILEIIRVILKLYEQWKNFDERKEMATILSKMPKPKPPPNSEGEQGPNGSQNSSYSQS
T2 sequence (P50750 whole entry): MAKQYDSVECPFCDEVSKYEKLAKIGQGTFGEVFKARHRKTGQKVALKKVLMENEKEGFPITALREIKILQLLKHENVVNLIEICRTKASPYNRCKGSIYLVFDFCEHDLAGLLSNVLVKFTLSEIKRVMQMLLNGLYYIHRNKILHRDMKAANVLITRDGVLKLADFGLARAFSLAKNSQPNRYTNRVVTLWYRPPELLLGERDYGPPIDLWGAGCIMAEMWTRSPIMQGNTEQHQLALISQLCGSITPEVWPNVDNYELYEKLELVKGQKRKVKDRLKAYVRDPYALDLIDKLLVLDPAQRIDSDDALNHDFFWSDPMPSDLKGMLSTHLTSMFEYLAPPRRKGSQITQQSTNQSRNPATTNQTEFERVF
T2 sequence (O60563 whole entry partner): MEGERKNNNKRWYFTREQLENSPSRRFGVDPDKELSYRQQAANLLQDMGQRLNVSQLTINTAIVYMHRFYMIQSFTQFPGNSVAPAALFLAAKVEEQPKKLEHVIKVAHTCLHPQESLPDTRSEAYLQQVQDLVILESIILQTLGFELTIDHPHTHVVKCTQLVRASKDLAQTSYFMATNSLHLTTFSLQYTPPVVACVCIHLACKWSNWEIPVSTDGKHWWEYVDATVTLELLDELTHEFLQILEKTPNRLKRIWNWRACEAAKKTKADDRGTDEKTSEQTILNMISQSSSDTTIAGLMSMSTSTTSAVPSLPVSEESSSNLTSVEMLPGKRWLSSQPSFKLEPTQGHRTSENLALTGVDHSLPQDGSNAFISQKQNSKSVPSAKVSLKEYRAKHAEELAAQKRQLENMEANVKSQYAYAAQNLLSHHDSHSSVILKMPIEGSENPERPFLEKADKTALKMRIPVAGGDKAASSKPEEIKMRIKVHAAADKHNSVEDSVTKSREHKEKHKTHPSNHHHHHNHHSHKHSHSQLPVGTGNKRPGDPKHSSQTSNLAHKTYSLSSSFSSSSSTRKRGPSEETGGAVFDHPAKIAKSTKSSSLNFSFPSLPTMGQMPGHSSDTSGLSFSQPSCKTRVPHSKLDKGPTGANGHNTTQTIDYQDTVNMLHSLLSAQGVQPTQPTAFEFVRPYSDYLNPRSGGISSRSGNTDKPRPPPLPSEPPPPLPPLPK

Regarding `N#Cc1c(Br)c(Br)c2c3c1nc(N1CCNCC1)n3CCC2` [Example 8B], the inhibition at 1 µM at CDK8/CyclinC was 90%; on CDK9/CyclinT, 20%; on CDK2/CyclinE, 0%. The IC50 (usually the midpoint of a concentration-inhibition curve) with HCT116 cells is 1.7 µM; with SW480 cells it was 4.1 µM.
The matching figures for `C[C@H]1CN(c2nc3c(I)c(Br)c(Br)c4c3n2CCC4)CCN1` [Example 3T]: 90%, 21%, 17%, 1.6 µM and 1.3 µM.
The matching figures for `Brc1c(Br)c2c3c(nc(NC4CCNC4)n3CCC2)c1Br` (stereo not shown) [Example 1L]: 81%, 9%, 19%, 1.1 µM and 1.4 µM.
For `CC1(C)CN(c2nc3c(I)c(Br)c(Br)c4c3n2CCC4)CCN1` [Example 3W], in that order: 92%, 10%, 8%, 1.5 µM and 1.4 µM.
Consider `N[C@H]1CCN(c2nc3c(Br)c(Br)c(Br)c4c3n2CCC4)C1` [Example 1G], for which the inhibition at 1 µM on CDK8/CyclinC was determined as 96%; on CDK9/CyclinT, 45%; at CDK2/CyclinE it was 29%. For the same compound, the IC50 in the assay with HCT116 cells came to 0.7 µM; with SW480 cells it was 1.1 µM.
The matching figures for `C[C@H]1CN(c2nc3c(Br)c(Br)c(Br)c4c3n2CCC4)CCN1` [Example 3AA]: 96%, 21%, 20%, 0.4 µM and 1.3 µM.
In the case of `CN1CCC(c2nc3c(Br)c(Br)c(Br)c4c3n2CCC4)CC1` [Example 7B], the inhibition at 1 µM at CDK8/CyclinC was found to be 88%; at CDK9/CyclinT it was 6%; on CDK2/CyclinE, 14%. Moreover, the figures for the IC50 with HCT116 cells and in the assay with SW480 cells were 2.6 µM and 6.3 µM, respectively.
For the compound `C[C@@H]1CN(c2nc3c(I)c(Br)c(Br)c4c3n2CCC4)CCN1` [Example 3AD], the results for the inhibition at 1 µM on CDK8/CyclinC, on CDK9/CyclinT and at CDK2/CyclinE were 100%, 42% and 16%, respectively. Further, the IC50 was 0.6 µM with HCT116 cells and 1.3 µM in the assay on SW480 cells.
For `C[C@@H]1CN(c2nc3c(Br)c(Br)c(Br)c4c3n2CCC4)CCN1` [Example 3AB], in that order: 84%, 47%, 27%, 0.4 µM and 1.4 µM.
The matching figures for `CN1CCN(c2nc3c(I)c(Br)c(Br)c4c3n2CCC4)CC1` [Example 3AM]: 100%, 39%, 40%, 2.8 µM and 4 µM.
For `NC1CCCN(c2nc3c(Br)c(Br)c(Br)c4c3n2CCC4)CC1` (stereo not shown) [Example 1M], in that order: 59%, 0%, 6%, 1.1 µM and 1.5 µM.
With `Cc1c(Br)c(Br)c2c3c1nc(N1CC[C@@H](N)C1)n3CCC2` [Example 1AK], the inhibition at 1 µM at CDK8/CyclinC is 93%; at CDK9/CyclinT, 2%; at CDK2/CyclinE, 0%. Further, the IC50 in the assay on HCT116 cells was found to be 1.7 µM; with SW480 cells it was 1.8 µM.
The matching figures for `NC1CCN(c2nc3c(Br)c(Br)c(Br)c4c3n2CCC4)CC1` [Example 1AG]: 82%, 42%, 33%, 1.3 µM and 0.5 µM.
`N[C@@H]1CCN(c2nc3c(Br)c(Br)c(Br)c4c3n2CCC4)C1` [Example 1AE]: the inhibition at 1 µM amounted to 97% on CDK8/CyclinC, 61% on CDK9/CyclinT and 44% at CDK2/CyclinE. Further, the figures for the IC50 in the assay on HCT116 cells and with SW480 cells were 0.3 µM and 1.1 µM, respectively.
